Results taken from article PMC6235536 (Science Advances, 2018).
Residues, ends and D or L forms follow the SMILES beside them.

Tests used:
E. coli = settings: IM or OM of E. coli; cited from earlier work
Gram-negative strains = settings: all the Gram-negative strains tested; cited from earlier work
[1] = biological target: LptA labeled with DyLight650 (E. coli) (UniProt P0ADV1); assay: MST
LptA-His6 (E. coli) = LptA-His6 (E. coli) (UniProt P0ADV1); assay: fluorescence polarisation

For `CC[C@H](C)CCCCC(=O)N[C@@H](CCN)C(=O)N[C@H](C(=O)N[C@@H](CCN)C(=O)N[C@H]1CCNC(=O)[C@H]([C@@H](C)O)NC(=O)[C@H](CCN)NC(=O)[C@H](CCN)NC(=O)[C@H](CC(C)C)NC(=O)[C@@H](CC(C)C)NC(=O)[C@H](CCN)NC1=O)[C@@H](C)O` [Colistin] (HELM PEPTIDE1{[CC[C@H](C)CCCCC(=O)[*:2]].[Dab].T.[Dab].[Dab].[Dab].[dL].L.[Dab].[Dab].T}$PEPTIDE1,PEPTIDE1,5:R3-11:R2$$$V2.0; N-terminus assumed; bridges inferred), the “membrane permeabilization by other cationic antimicrobial peptides” value (E. coli) is listed as “unlike what is seen with some other cationic antimicrobial peptides”.
In the case of “D-thanatin: enantiomeric form of thanatin (comprising all D-amino acids)”, the “activity of enantiomeric form” value (Gram-negative strains) is given as “loses much of its activity”.
In the case of polymyxin B, the “membrane permeabilization by other cationic antimicrobial peptides” value (E. coli) is given as “unlike what is seen with some other cationic antimicrobial peptides”.
In the case of thanatin (peptide), the Kd [1] is reported as 20 nM.
With thanatin-BDP-FL (peptide) the Kd (LptA-His6 (E. coli)) was 12 nM.
